Experimental data as given in patent publication US20220211860A1, “PEPTIDE DERIVATIVES AND CONJUGATES THEREOF FOR TREATING CANCER” (priority 2019, published 2022).
Where two headings read alike, the source gives them in different places. Non-standard residues stand in square brackets, D forms with d. Residues, ends and D or L forms follow the SMILES beside them. *: point of attachment. Dolaproine = CO[C@@H]([C@@H]1CCCN1)[C@@H](C)C(=O)O; Dil = CC[C@H](C)[C@H](NC)[C@@H](CC(=O)O)OC; X1 = C[C@@H](N*)[C@@H](O)c1ccccc1; NMeV = CN[C@H](C(=O)O)C(C)C

Legend:
[1] = in vitro; details: human, plasma, half-life (T1/2)
Method: As described herein in vitro metabolic stability in plasma is defined as the susceptibility of a chemical compound to biotransformation in plasma, and is expressed as in vitro half-life (T1/2).
(B) The metabolic stability of LHRH peptide derivatives examined in human plasma and quantified by Liquid Chromatography-Mass-Spectrometry (LC-MS) in a time dependent manner. […] Statistical analysis was performed using a one-way ANOVA followed by Dunnett's post-hoc test. Error bars are standard deviations (STDV), p<0.05, n=9 (3 independent experiments each performed in triplicate).

[2] = tested on: SKOV-3; details: read-out: IC50 inhibition of cell growth
Method: (§2) The IC50 values (μM) were estimated from concentration-response curves using non-linear regression for inhibition of cell growth. Data are expressed as mean±SD from at least three independent experiments, each in triplicate. Statistical analysis was performed using a two-way ANOVA (* p<0.05, the IC50 for each compared with that of their corresponding parent peptide for the same cell line).

[3] = tested on: MDA-MB-231; details: read-out: IC50 inhibition of cell growth
Method: as §2

[4] = tested on: MCF-7; details: read-out: IC50 inhibition of cell growth
Method: as §2

[5] = tested on: SK-BR-3; details: read-out: IC50 inhibition of cell growth
Method: as §2

[6] = tested on: α-tubulin polymerisation; assay: α-tubulin immunostaining in TNBC and normal breast cells; type: cell-based; details: TNBC cells and normal breast cells, 1 µM, 18 h
Method: FIGS. 8A and 8B: The effect of MMAE and LD5-me-vc-PABC-MMAE (LM) on α-tubulin polymerization. (A) MDA-MB-231 (TNBC cell model) and normal breast cells (HMEC and MCF-10A) were treated with free MMAE and LM at 1 μM and PBS (control) followed by immunostaining of α-tubulin with primary and secondary antibodies. The α-tubulin signals were detected by LEICA SPE2 confocal LSM. (B) The α-tubulin signal intensity was measured by Fiji J software in normal breast cells (HMEC and MCF-10A) and MDA-MB-231. ****p<0.0001 is the significance in the signal intensity in each cell line treated with PBS and LM in comparison to MMAE-treated cells. ####p<0.0001 is the significance of the α-tubulin signal intensity in MDA-MB-231 cells treated with LM in comparison to MCF-10A and HMEC cells. […] Statistical analysis was made in Prism by two-way ANOVA followed by Tukey's multiple comparisons test. Error bars are standard deviations (STDV), n=8 (3 independent repeats).
The intracellular effects of MMAE on α-tubulin polymerisation were examined using α-tubulin immunostaining in TNBC cells (MDA-MB-231) and normal breast cells (MCF-10A and HMEC) treated with MMAE and MMAE conjugated with LD5 (LD5-mc-vc-PABC-MMAE). TNBC cells and normal breast cells were fixed after incubating with […] of MMAE and LD5-mc-vc-PABC-MMAE for 18 h along with PBS as a control. […]

[7] = tested on: MCF-10A; assay: MTT cytotoxicity assay, MCF-10A normal breast cells; type: cell-based; details: 72 h
Method: (§1) FIG. 4A to 4E: The cytotoxic activity of the peptide conjugate LD5-mc-vc-PABC-MMAE (LM) in comparison to MMAE was assessed in MDA-MB-231 (TNBC cell model) versus HMEC and MCF-10A (normal breast cells) and SKOV-3 (low LHRH-R expressing cell model), by MTT assay after incubating cells with compounds in serial dilution for 72 h. (A) The relative cellular viability was assessed in comparison to PBS-treated negative control group and IC50 value (nM) was calculated by non-linear regression (curve fit) for HMEC and MCF-10A (normal breast cells) and MDA-MB-231 (LHRH-R positive, TNBC cell model) and SKOV-3 (LHRH-R low expressing cells). (B) The cell viability in LD5-me-vc-PABC-MMAE (LM) was assessed in HMEC as normal breast cell line in comparison to MMAE by two-way ANOVA followed by Sidak's multiple comparisons test (****p<0.0001). (C) The cell viability in LD5-mc-vc-PABC-MMAE (LM) was assessed in MCF-10A as normal breast cell line in comparison to MMAE by two-way ANOVA followed by Sidak's multiple comparisons test (***p<0.001, **p<0.01, *p<0.05). (D) The cell viability in LD5-me-vc-PABC-MMAE (LM) was assessed in MDA-MB-231 (TNBC cell model) in comparison to MMAE by two-way ANOVA followed by Sidak's multiple comparisons test (****p<0.0001). […]

[8] = tested on: HMEC; assay: MTT cytotoxicity assay, HMEC normal breast cells; type: cell-based; details: 72 h
Method: as §1

[9] = tested on: SKOV-3; assay: MTT cytotoxicity assay, SKOV-3 (low LHRH-R expressing); type: cell-based; details: SKOV-3, 72 h
Method: as §1

[10] = tested on: mice; assay: MTD of brentuximab vedotin in mice (comparison); type: in vivo
Excerpt: Therefore, the MTD was not reached at this dose. With the corresponding ADCs bearing MMAE the MTD has been considerably lower.

[11] = tested on: mice; details: cited from earlier work

| Molecule | half-life [1] | IC50 [2] | IC50 [3] | IC50 [4] | IC50 [5] | α-tubulin formation compared to PBS control [6] | IC50 [7] | IC50 [8] | IC50 [9] | MTD expressed as equivalent of LHRHD-(mc-vc-PABC)-MMAE [10] | MTD [11] |
| --- | --- | --- | --- | --- | --- | --- | --- | --- | --- | --- | --- |
| CCNC(=O)[C@@H]1CCCN1C(=O)[C@H](CCCNC(=N)N)NC(=O)[C@H](CC(C)C)NC(=O)[C@@H](CCCCN)NC(=O)[C@H](Cc1ccc(O)cc1)NC(=O)[C@H](CO)NC(=O)[C@H](Cc1c[nH]c2ccccc12)NC(=O)[C@H](Cc1c[nH]cn1)NC(=O)[C@@H](N)CCC(N)=O [LD4, Gln-His-Trp-Ser-Tyr-D-Lys-Leu-Arg-Pro-NHCH2CH3] (H-QHWSY[dK]LRP-NHEt) | ~4.28 h | > 100 µM | 36.2 ± 0.8 µM | 51.3 ± 3.1 µM | 31.2 ± 4.8 µM | – | – | – | – | – | – |
| CCNC(=O)[C@@H]1CCCN1C(=O)[C@H](CCCNC(=N)N)NC(=O)[C@H](CC(C)C)NC(=O)[C@@H](CCCCN)NC(=O)[C@H](Cc1ccc(O)cc1)NC(=O)[C@H](CO)NC(=O)[C@H](Cc1c[nH]c2ccccc12)NC(=O)[C@H](Cc1c[nH]cn1)NC(=O)[C@@H]1CCC(=O)N1 [LD5, pGlu-His-Trp-Ser-Tyr-D-Lys-Leu-Arg-Pro-NHCH2CH3] | ~6.08 h | > 100 µM | 38.1 ± 1.4 µM | 47.6 ± 5.4 µM | 33.5 ± 2.5 µM | – | – | – | – | – | – |
| CCNC(=O)[C@@H]1CCCN1C(=O)[C@H](CCCNC(=N)N)NC(=O)[C@H](CC(C)C)NC(=O)[C@@H](CCCCNC(=O)CCCCCN)NC(=O)[C@H](Cc1ccc(O)cc1)NC(=O)[C@H](CO)NC(=O)[C@H](Cc1c[nH]c2ccccc12)NC(=O)[C@H](Cc1c[nH]cn1)NC(=O)[C@@H]1CCC(=O)N1 [LD6, pGlu-His-Trp-Ser-Tyr-D-Lys(Ahx)-Leu-Arg-Pro-NHCH2CH3] | ~5.15 h | > 100 µM | 33.2 ± 2.5 µM | 49.2 ± 2.1 µM | 29.7 ± 1.1 µM | – | – | – | – | – | – |
| CC(C)C[C@H](NC(=O)CNC(=O)[C@H](Cc1ccc(O)cc1)NC(=O)[C@H](CO)NC(=O)[C@H](Cc1c[nH]c2ccccc12)NC(=O)[C@H](Cc1c[nH]cn1)NC(=O)[C@@H]1CCC(=O)N1)C(=O)N[C@@H](CCCNC(=N)N)C(=O)N1CCC[C@H]1C(=O)NCC(N)=O [LHRH, pGlu-His-Trp-Ser-Tyr-Gly-Leu-Arg-Pro-Gly-NH2, reference compound] | ~0.167 h | > 100 µM | > 100 µM | > 100 µM | > 100 µM | – | – | – | – | – | – |
| CC[C@H](C)[C@@H]([C@@H](CC(=O)N1CCC[C@H]1[C@H](OC)[C@@H](C)C(=O)N[C@H](C)[C@@H](O)c1ccccc1)OC)N(C)C(=O)[C@@H](NC(=O)[C@@H](NC)C(C)C)C(C)C [MMAE, monomethyl auristatin E] (H-[NMeV]V[Dil][Dolaproine]-X1) | – | – | – | – | – | dramatic decrease in α-tubulin formation | 0.00083 µM | 0.00011 µM | 0.03 nM | – | – |
| CC(C)C[C@H](NC(=O)[C@@H](CCCCN)NC(=O)[C@H](Cc1ccc(O)cc1)NC(=O)[C@H](CO)NC(=O)[C@H](Cc1c[nH]c2ccccc12)NC(=O)[C@H](Cc1cnc[nH]1)NC(=O)[C@@H]1CCC(=O)N1)C(=O)N[C@@H](CCCNC(=N)N)C(=O)N1CCC[C@H]1C(=O)NCC(N)=O [[k^6] LHRH, reference compound] | ~0.65 h | – | – | – | – | – | – | – | – | – | – |
| CC(C)C[C@H](NC(=O)[C@@H](Cc1c[nH]c2ccccc12)NC(=O)[C@H](Cc1ccc(O)cc1)NC(=O)[C@H](CO)NC(=O)[C@H](Cc1c[nH]c2ccccc12)NC(=O)[C@H](Cc1c[nH]cn1)NC(=O)[C@@H]1CCC(=O)N1)C(=O)N[C@@H](CCCNC(=N)N)C(=O)N1CCC[C@H]1C(=O)NCC(N)=O [triptorelin, reference compound] | ~0.317 h | > 100 µM | 68.1 ± 8.1 µM | 79.4 ± 5.3 µM | 81.2 ± 7.2 µM | – | – | – | – | – | – |
| brentuximab vedotin: ADC in the clinic containing MMAE | – | – | – | – | – | – | – | – | – | approximately 70 mg/kg | 30 to 40 mg/kg |
